Assay results as given in US4159334A, “Medicinal preparation with an antiinflammatory, analgesic and antipyretic effect” (priority 1977, dated 1979).
Entries after “also recorded” stand apart in the source; their conditions may differ.

Columns and labels:
[1] = brufen side effects, source not stated; cited from earlier work
[2] = Aerosol-induced edema of paw in mice (acute test); format: in vivo; conditions: acetylsalicylic acid = 1
Description: Aerosol-induced edema of
paw in mice (acute test)

[3] = Aerosol-induced edema of paw in rats (subacute test), exudative process; format: in vivo
Description: Aerosol-induced edeima of
ry paw in rats (subacute test)

[4] = tail burning test in mice; format: in vivo; conditions: for reduction of the reaction to a thermal irritant: mice
Experimental: (§1) For example, the preparation introduced orally to mice in 10 and 20 mg/kg doses reduced the reaction of the mice to a thermal irritant by 47-75% an hour after administration. Acetylsalicylic acid in 40-300 mg/kg doses causes an effect equal to 37-87%.

[5] = acetic acid "writhing" in mice; format: in vivo; conditions: acetylsalicylic acid = 1
[6] = painful irritation of rat's paw with electric current; format: in vivo, rats; conditions: acetylsalicylic acid = 1
yeast fever in rats = format: in vivo
[7] = phenamine hyperthermia in mice; format: in vivo
Description: | Phenamine hyperthermia in

[8] = acute toxicity to anti-edematous action ratio (LD50/ED50) in mice; format: in vivo; conditions: oral administration, acetylsalicylic acid = 1
[9] = embryotoxic effects in rats; format: in vivo
Description: The preparation was examined for possible embryotoxic effects in rats.

[10] = acute toxicity in mice (oral, intraperitoneal); conditions: for LD50: mouse, in vivo
[11] = carrageenin and aerosol-induced inflammatory edema, acute tests in mice; format: in vivo; conditions: single oral doses of 5 to 20 mg/kg
[12] = implanted sterile paper balls, granuloma weight in rats; format: in vivo; conditions: 10 and 20 mg/kg
Experimental: It was established in tests with rats with implanted sterile paper rolled into balls that 10 and 20 mg/kg doses of the preparation reduce the weight of the granulomas by 41-60% and, consequently, produce an inhibiting effect on proliferation processes during inflammation.

[13] = test system: erythrocyte aggregation reaction; assay: membrane-stabilizing effect: erythrocyte aggregation reaction caused by a gelatine solution, in vitro and in vivo; format: cell-based
[14] = tests in adrenalectomized animals; format: in vivo
[15] = comparison of analgesic ED50 values in three models (tail burning, writhing, electric current); format: in vivo; conditions: acetic acid writhing (mice), electric current (rats)
Experimental: as §1

acute toxicity in cats = format: in vivo
[16] = tolerance on oral administration for 2 to 4 months; format: in vivo; conditions: rats, rabbits and dogs, doses equal to 5% of LD50, 30 and 70 times the human dose
Description: These doses, which are conventionally therapeutic, and equal to 5% of the LD50 for these animals, exceeded 30 and 70 times the dose recommended for humans.

[17] = influence on organ functions and internal organs of animals; format: in vivo
[18] = parameters: species or system rabbits; conditions: rabbit, in vivo
[19] = test system: cells of the amnionic membrane; format: cell-based, human
[20] = clinical trials, therapeutic effect; format: in vivo, human patients
Description: (§2) The course of treatment lasted 3 to 4 weeks. In individual cases, the preparation was given once daily for 1 to 5 days as a symptomatic remedy (analgesic and antipyretic).
The main group of the patients given a course of treatment (203 persons), had the following diseases: rheumatism (active phase, 1st-2nd degree, according to A. I. Nesterov's classification) affecting the joints and heart (primary and recurrent rheumocarditis, heart disease of rheumatic etiology with symptoms of cardiac decompensation, of the 1-2A degree)--76 patients; polyarthritis (rheumatoid, exacerbation of chronic infectious, acute infectious-allergic, metabolic)--89 patients; arthrosis, spondylosis, exacerbation of chronic interstitial pneumonia--9 patients.
(§3) The effectiveness of the preparation was assessed by changes in complaints, clinical observation results (temperature, sensation of pain, local manifestations of the inflammatory process) and laboratory examination data (changes patients' peripheral blood picture, albumin fractions, glycoproteins and sialic acids content in blood serum, examination of stools for occult blood before and after treatment, etc.).

[21] = parameters: species or system human patients; conditions: human, in vivo
Experimental: as §2, §3
Clinicians hold the option that tolerance to the preparation is good.

[22] = comparison of activity with acetylsalicylic acid, all experimental studies; format: in vivo; conditions: Table 2
[23] = carrageenin-induced inflammatory edema, comparison with literature data; format: in vivo
[24] = parameters: species or system human patients; conditions: human, in vivo; remark: listed apart in the source
Description: On the basis of these experimental data, the preparation was used clinically for the treatment of patients with chronic polyarthritis accompanied by gastrointestinal pathology, namely duodenal ulcer in the stage of remission. […] In view of the above, and also in view of the new preparation's general good tolerance, it may be used in patients with accompanying diseases of the organs of the alimentary system, which are contraindications to the use of most of the antiinflammatory remedies.

antibacterial action = conditions: in contrast to brufen
[25] = in vivo
[26] = in vivo; remark: listed apart in the source
[27] = rheumatic heart and joint disease

For `CC(C)Cc1ccc(C(C)C(=O)O)cc1` (centres unmarked) [Brufen], the “abdominal pain and headaches” value [1] is given as 11%, the allergic symptoms [1] is given as 6-8% and the “dyspepsia, gastrointestinal hemorrhages, bronchospasm, thrombocytopenia, mental disorders, exacerbation of cholecystitis” value [1] is given as 11-15%.
For `CC(=O)Oc1ccccc1C(=O)O` [acetylsalicylic acid, reference compound], the “Relative activity, antiinflammatory, aerosol-induced edema of paw in mice (acute test)” value [2] was 1, the “Relative activity, antiinflammatory, aerosol-induced edema of paw in rats (subacute test)” value ([3]; acetylsalicylic acid = 1) was 1 and the “dose producing a similar effect, relative to the proposed preparation” value ([3]; rats, same test conditions, subacute) was 30 times. For the same molecule, the “Relative activity, analgesic, burning tail of mice” value ([4]; acetylsalicylic acid = 1) was 1, the “reduction of the reaction to a thermal irritant” value ([4]; 40-300 mg/kg) was 37-87% and the “Relative activity, analgesic, acetic acid "writhing" in mice” value [5] was 1. The “Relative activity, analgesic, painful irritation of rat's paw with electric current” value [6] was 1, the “Relative activity, antipyretic, yeast fever in rats” value (yeast fever in rats; acetylsalicylic acid = 1) was 1 and the “Relative activity, antipyretic, phenamine hyperthermia in mice” value ([7]; acetylsalicylic acid = 1) was 1. The “Relative therapeutic index, acute toxicity to anti-edematous action ratio (LD50/ED50)” value [8] was 1, the embryotoxic effect ([9]; parallel comparative tests) was “produces an embryotoxic effect” and the enteral coefficient ([10]; mice) was -1.8. It also gave an LD50 ([10]; ip) of 1100 mg/kg and an LD50 ([10]; po) of 1910 mg/kg.
With `OC(Nc1nccs1)C(Cl)(Cl)Cl` (centres unmarked) [proposed preparation, 2,2,2-trichloro-1-(2-thiazolylamino)-ethanol] the “reduction of the symptoms of exudation” value [11] was 17-62%, the “reduction of intensity of the exudative process” value ([3]; rats, 10 mg/kg, within 3 hours after administration) was “reducing its intensity by half” and the “reduction of the weight of the granulomas” value [12] was 41-60%. For the same molecule, the “membrane-stabilizing effect (erythrocyte aggregation reaction)” value [13] was “mitigation of the erythrocyte aggregation reaction”, the “contribution of the adrenal system to antiinflammatory effect” value [14] was “andrenal system contributes to the proposed preparation's antiinflammatory effect” and the “reduction of the reaction to a thermal irritant” value ([4]; oral, 10 and 20 mg/kg, an hour after administration) was 47-75%. For the same molecule, the analgesic effect [15] was “analgesic effect was proved by three methods”, the “antipyretic effect compared with acetylsalicylic acid” value (yeast fever in rats; rats with yeast fever, 100 mg/kg) was “corresponds to that produced by a 300 mg/kg dose of acetylsalicylic acid” and the phenamine hyperthermia ([7]; mice, same dose (100 mg/kg) followed by phenamine) was “do not manifest the usual hyperthermia”. For the same molecule, the picture of intoxication (acute toxicity in cats; acute toxicity, doses in excess of 1 g/kg) was “pronounced inhibition in the animals into a state similar to the prenarcotic state”, the “dose causing symptoms of intoxication and death” value (acute toxicity in cats; cats) was greater than 1000 mg/kg and the “tolerance on long oral administration” value [16] was “well tolerated”. The “functions of the respiratory and cardiovascular systems” value [17] was “does not affect”, the irritation of tissues [18] was “does not cause irritation” and the “toxic effect on cells of the amnionic membrane” value [19] was “nor does it have any toxic effect”. For the same molecule, the “effect on development of the rat embryos” value ([9]; 55 mg/kg, 12 days from the 9th day of pregnancy) was “does not affect the development of the rat embryos”, the “patients with pronounced therapeutic effect, arthritis” value ([20]; arthritis of different etiology, 89 patients) was 68% and the “patients with similar therapeutic effect” value ([20]; arthrosis, spondylosis and exacerbation of chronic interstitial pneumonia) was 65%. For the same molecule, the “number of patients with pronounced therapeutic effect, arthritis” value ([20]; out of 89) was 61, the “number of patients with pronounced therapeutic effect, rheumatic” value ([20]; out of the 76 patients) was 61 patients and the “drop in temperature, time” value ([20]; patients) was “towards the end of the first week of therapy”. For the same molecule, the temperature after course ([20]; patients, 3 to 4 week course) was “completely normalized”, the “general status, physical activity, symptoms of local inflammation” value ([20]; patients, 4th to 9th day from beginning of treatment) was “improvement of the patient's general status, increasing physical activity, abatement of symptoms of local inflammation” and the ECG indices [20, 27] was “ECG indices improved: extrasystole disappeared, symptoms of myocardial anoxia diminished”. For the same molecule, the “pain in the region of the heart” value [20, 27] was “abated”, the “paraclinical data: albumin content and gamma-fraction of the blood” value [20, 27] was “a marked tendency towards a higher albumin content and the normalization of the gamma-fraction of the blood” and the “paraclinical data: leukocytes, ESR” value [20, 27] was “disappearance of leukocytes drop of the ESR to normal”. For the same molecule, the neurological status ([20]; rheumatic patients) was “improvement of their neurological status was observed, manifested by diminishing asthenia and irritability”, the “patients with pronounced therapeutic effect, rheumatic” value ([20]; rheumatic patients, 76 patients) was 80% and the contraindications [21] was “No contraindications”. The “influence on peripheral blood composition” value [21] was “no influence on the peripheral blood composition”, the leukocyte count [21] was “diminished to norm in leukocytosis and increased in leukopenia” and the tolerance [21] was “good”. The “activity compared with acetylsalicylic acid” value [22] was “higher activity than acetylsalicylic acid; also recorded: superior to acetylsalicylic acid in all the main effects”, the “antiinflammatory activity compared with sodium salicylate, phenylbutazone, mephenamic acid (Ponstan) and brufen” value [23] was “higher than that of sodium salicylate, phenylbutazone, mephenamic acid (Ponstan) and brufen” and the “exacerbation of the ulcerous disease” value [24] was “did not cause an exacerbation of the ulcerous disease”. The “fecal reaction to occult blood” value [24] was “negative in all the patients”, the antibacterial action (antibacterial action) was “moderately pronounced antibacterial action” and the “harmful effect on the gastrointestinal mucosa” value [25] was “no harmful effect on the gastrointestinal mucosa”. For the same molecule, the “discomfort in the epigastral region” value [26] was 1.6 % of cases, the drug dermatitis [26] was 2.4% and the “reversibility of side effects” value [26] was “pass quickly once the preparation is discontinued”. For the same molecule, the “absorption from the gastrointestinal tract compared with acetylsalicylic acid” value ([10]; from enteral coefficient) was “better absorption of the preparation from the gastrointestinal tract”, the LD50 ([10]; ip) was 708 mg/kg and the LD50 ([10]; po) was 1050 mg/kg.
